# According to patent US10299999B2, “Flavour composition comprising menthol and menthane carboxamides” (Givaudan, S.A., priority 2011, dated 2019):
# Experiment: Toothpaste sensory panel: flavours A-C at 1% in silica toothpaste base, scored 0-10 for cooling, tingling, freshness and overall preference
# Type: in vivo, naive volunteers
# Conditions: low levels replacing high levels of menthol in a toothpaste flavour
# Procedure: The Flavours were each incorporated into a standard silica toothpaste base at 1%:
# All three toothpastes were coded and given to 37 naive volunteers. The volunteers were asked to brush the teeth for 30 seconds and score each toothpaste (0-10 scale) for cooling, tingling and freshness at each of six time points: 0 minutes, 5 minutes, 10 minutes, 20 minutes, 30 minutes and 60 minutes. At the end of the 60 minutes, they were also asked for their overall preference scores (0-10 scale).
smiles,measurement,value
"CC(C)[C@@H]1CC[C@@H](C)C[C@H]1C(=O)Nc1ccc(CC#N)cc1 (stereo in doubt) [Evercool 180, N-(4-cyanomethylphenyl) p-menthanecarboxamide]",sensorial benefits compared with the flavour with the high levels of menthol,superior sensorial benefits
